In PMC5448077, “Development of an orally available inhibitor of CLK1 for skipping a mutated dystrophin exon in Duchenne muscular dystrophy” (Scientific Reports, 2017):

What was measured:
Test in all cases: biochemical
[1] = molecular target: INSR (Homo sapiens, UniProt P06213)
Outline: (§1)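 Reactions at room temperature in HEPES buffer (20 mM, pH 7.5, 0.01% Triton X-100, 2 mM DTT) lasted 1 or 5 h depending on kinase, with substrate peptide and ATP-metal. Phosphorylation read by electrophoretic mobility shift or IMAP polarization; kinase activity computed as P/(P + S).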

[2] = molecular target: HCK (Homo sapiens, UniProt P08631)
Outline: as §1

[3] = molecular target: EPHA5 (Homo sapiens, UniProt P54756)
Outline: as §1

[4] = molecular target: EPHA8 (Homo sapiens, UniProt P29322)
Outline: as §1

[5] = molecular target: PIM1 (Homo sapiens, UniProt P11309)
Outline: as §1

[6] = molecular target: DAPK1 (Homo sapiens, UniProt P53355)
Outline: as §1

[7] = molecular target: T1, TRKA (Homo sapiens, UniProt P04629)
T1 construct: gene NTRK1
Outline: as §1

[8] = molecular target: SPHK2 (Homo sapiens, UniProt Q9NRA0)
Outline: as §1

[9] = molecular target: CDC7/ASK (Homo sapiens, UniProt O00311)
Outline: as §1

[10] = molecular target: T2, AurB (Homo sapiens, UniProt Q96GD4)
T2 construct: gene AURKB
Outline: as §1

[11] = molecular target: CDK3/CycE1 (Homo sapiens, UniProt Q00526)
Outline: as §1

[12] = molecular target: T3, PKCα (Homo sapiens, UniProt P17252)
T3 construct: gene PRKCA
Outline: as §1

[13] = molecular target: T4, MRCKα (Homo sapiens, UniProt Q5VT25)
T4 construct: gene CDC42BPA
Outline: as §1

[14] = molecular target: T5, BRK (Homo sapiens, UniProt Q13882)
T5 construct: gene PTK6
Outline: as §1

[15] = molecular target: LATS2 (Homo sapiens, UniProt Q9NRM7)
Outline: as §1

[16] = molecular target: TAOK2 (Homo sapiens, UniProt Q9UL54)
Outline: as §1

[17] = molecular target: T6, AMPKα2/β1/γ1 (Homo sapiens, UniProt P54646)
T6 construct: gene PRKAA2
Outline: as §1

[18] = molecular target: T7, MST3 (Homo sapiens, UniProt Q9Y6E0)
T7 construct: gene STK24
Outline: as §1

[19] = molecular target: CDK6/CycD3 (Homo sapiens, UniProt Q00534)
Outline: as §1

[20] = molecular target: T8, IKKε (Homo sapiens, UniProt Q14164)
T8 construct: gene IKBKE
Outline: as §1

[21] = molecular target: FLT1 (Homo sapiens, UniProt P17948)
Outline: as §1

[22] = molecular target: PIM2 (Homo sapiens, UniProt Q9P1W9)
Outline: as §1

[23] = molecular target: PAK2 (Homo sapiens, UniProt Q13177)
Outline: as §1

[24] = molecular target: T9, PKCζ (Homo sapiens, UniProt Q05513)
T9 construct: gene PRKCZ
Outline: as §1

[25] = molecular target: CDK2/CycA2 (Homo sapiens, UniProt P24941)
Outline: as §1

[26] = molecular target: T10, TRKC (Homo sapiens, UniProt Q16288)
T10 construct: gene NTRK3
Outline: as §1

[27] = molecular target: T11, IKKα (Homo sapiens, UniProt O15111)
T11 construct: gene CHUK
Outline: as §1

[28] = molecular target: FGFR3 (Homo sapiens, UniProt P22607)
Outline: as §1

[29] = molecular target: T12, CK1γ2 (Homo sapiens, UniProt P78368)
T12 construct: gene CSNK1G2
Outline: as §1

[30] = molecular target: T13, FYN(isoform a) (Homo sapiens, UniProt P06241)
T13 construct: isoform a
Outline: as §1

[31] = molecular target: MARK4 (Homo sapiens, UniProt Q96L34)
Outline: as §1

Chain of SPHK2 (Q9NRA0 whole entry): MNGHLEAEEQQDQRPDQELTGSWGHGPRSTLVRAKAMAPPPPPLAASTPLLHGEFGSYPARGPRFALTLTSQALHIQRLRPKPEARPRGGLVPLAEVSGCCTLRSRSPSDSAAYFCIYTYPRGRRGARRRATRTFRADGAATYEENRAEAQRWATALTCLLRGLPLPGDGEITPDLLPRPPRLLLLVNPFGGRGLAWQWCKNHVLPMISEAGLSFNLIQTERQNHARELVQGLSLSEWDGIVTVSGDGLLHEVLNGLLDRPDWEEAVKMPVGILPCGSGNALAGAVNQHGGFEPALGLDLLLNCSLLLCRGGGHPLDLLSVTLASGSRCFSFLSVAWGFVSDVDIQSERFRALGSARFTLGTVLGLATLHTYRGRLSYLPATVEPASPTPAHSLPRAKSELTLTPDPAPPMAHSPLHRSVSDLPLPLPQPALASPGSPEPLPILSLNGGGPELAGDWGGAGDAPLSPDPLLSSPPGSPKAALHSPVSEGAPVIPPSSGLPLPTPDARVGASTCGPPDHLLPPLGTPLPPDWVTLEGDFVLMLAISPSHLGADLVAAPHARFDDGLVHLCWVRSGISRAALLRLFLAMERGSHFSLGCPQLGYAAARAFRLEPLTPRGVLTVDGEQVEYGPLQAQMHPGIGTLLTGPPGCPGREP
T2 sequence (Q96GD4 whole entry): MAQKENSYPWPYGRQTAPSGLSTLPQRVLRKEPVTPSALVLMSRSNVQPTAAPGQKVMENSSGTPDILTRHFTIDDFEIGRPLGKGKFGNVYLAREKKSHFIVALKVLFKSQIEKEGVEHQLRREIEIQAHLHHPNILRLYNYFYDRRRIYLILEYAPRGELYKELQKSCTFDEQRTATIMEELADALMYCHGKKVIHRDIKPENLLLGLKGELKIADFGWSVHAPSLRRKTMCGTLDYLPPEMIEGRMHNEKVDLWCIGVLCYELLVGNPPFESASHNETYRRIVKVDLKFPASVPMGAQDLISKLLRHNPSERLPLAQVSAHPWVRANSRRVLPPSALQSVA
Chain of LATS2 (Q9NRM7 whole entry): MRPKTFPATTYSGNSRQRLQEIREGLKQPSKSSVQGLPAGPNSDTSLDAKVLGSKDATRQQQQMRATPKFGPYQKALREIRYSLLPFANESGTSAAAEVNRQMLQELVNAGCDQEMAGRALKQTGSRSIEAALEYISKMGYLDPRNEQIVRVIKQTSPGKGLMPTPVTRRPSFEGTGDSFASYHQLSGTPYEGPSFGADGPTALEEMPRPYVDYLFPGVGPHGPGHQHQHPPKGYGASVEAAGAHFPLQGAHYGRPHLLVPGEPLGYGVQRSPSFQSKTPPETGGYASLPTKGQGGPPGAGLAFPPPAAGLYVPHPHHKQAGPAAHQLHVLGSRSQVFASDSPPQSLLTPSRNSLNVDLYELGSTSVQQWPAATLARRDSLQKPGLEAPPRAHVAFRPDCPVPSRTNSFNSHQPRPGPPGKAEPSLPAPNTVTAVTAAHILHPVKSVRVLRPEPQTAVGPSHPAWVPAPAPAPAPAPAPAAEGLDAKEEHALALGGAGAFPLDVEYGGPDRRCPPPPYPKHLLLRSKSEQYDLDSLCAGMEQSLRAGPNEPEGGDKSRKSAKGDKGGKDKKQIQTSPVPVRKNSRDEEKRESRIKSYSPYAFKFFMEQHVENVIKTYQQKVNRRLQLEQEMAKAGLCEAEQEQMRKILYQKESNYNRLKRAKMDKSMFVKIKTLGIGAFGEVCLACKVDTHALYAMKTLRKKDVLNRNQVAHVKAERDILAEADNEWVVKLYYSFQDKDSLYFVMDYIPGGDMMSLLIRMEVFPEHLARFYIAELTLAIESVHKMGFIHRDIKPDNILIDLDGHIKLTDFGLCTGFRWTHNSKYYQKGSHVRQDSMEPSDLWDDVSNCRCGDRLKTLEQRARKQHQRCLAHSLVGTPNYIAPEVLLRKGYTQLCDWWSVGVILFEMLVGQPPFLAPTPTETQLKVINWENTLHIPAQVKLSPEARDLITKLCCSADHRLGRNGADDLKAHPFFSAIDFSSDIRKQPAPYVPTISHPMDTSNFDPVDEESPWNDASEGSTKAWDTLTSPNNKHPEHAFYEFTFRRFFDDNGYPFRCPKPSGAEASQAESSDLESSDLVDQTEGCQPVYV
Chain of FLT1 (P17948 whole entry): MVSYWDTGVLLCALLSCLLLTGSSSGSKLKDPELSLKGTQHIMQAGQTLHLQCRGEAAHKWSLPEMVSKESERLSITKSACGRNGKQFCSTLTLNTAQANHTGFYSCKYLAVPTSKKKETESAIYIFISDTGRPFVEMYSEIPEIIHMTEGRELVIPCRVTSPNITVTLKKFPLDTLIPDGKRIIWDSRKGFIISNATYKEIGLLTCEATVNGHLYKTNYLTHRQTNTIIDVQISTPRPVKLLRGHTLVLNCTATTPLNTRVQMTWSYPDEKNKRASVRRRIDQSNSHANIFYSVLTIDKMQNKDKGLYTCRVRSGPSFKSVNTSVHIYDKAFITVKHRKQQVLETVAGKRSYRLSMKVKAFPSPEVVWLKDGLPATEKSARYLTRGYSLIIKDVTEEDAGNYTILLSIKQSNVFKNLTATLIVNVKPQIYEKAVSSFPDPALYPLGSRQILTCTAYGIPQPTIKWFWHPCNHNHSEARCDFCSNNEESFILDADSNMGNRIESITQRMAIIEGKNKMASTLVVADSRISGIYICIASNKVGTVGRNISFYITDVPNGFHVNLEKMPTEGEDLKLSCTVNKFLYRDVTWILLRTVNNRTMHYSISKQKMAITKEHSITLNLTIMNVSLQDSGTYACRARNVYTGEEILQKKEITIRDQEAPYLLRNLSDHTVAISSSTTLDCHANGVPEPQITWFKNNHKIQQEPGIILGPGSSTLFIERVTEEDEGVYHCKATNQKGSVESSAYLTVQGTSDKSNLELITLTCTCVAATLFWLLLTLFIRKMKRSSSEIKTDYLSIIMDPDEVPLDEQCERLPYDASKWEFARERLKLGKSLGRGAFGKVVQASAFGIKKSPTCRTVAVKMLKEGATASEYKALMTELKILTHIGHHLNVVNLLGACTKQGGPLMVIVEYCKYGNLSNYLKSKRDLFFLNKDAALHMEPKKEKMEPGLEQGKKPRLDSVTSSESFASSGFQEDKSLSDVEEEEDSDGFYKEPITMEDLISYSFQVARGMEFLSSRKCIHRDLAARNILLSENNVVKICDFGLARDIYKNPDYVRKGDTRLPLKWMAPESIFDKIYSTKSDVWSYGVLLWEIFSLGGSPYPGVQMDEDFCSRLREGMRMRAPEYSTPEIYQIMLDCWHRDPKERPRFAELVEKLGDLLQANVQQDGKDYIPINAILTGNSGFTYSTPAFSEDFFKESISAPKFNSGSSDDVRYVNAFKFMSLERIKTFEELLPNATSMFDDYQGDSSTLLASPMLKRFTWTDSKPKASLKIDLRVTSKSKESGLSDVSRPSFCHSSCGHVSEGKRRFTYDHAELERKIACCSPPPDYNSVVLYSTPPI
T13 sequence (P06241 whole entry, canonical isoform): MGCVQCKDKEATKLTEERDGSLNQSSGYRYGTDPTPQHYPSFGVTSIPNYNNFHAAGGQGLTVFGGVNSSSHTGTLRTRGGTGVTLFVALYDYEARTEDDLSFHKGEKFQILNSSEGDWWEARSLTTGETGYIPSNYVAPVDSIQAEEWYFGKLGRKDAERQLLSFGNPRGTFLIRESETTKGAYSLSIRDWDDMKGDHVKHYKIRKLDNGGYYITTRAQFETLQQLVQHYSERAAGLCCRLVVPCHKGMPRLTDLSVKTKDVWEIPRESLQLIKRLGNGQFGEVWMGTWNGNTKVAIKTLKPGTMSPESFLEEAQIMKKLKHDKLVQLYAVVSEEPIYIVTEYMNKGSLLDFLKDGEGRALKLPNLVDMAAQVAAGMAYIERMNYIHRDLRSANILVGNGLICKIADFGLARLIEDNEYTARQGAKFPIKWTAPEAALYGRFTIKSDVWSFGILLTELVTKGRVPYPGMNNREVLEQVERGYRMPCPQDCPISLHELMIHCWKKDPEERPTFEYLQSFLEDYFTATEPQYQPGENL
T7 sequence (Q9Y6E0 whole entry): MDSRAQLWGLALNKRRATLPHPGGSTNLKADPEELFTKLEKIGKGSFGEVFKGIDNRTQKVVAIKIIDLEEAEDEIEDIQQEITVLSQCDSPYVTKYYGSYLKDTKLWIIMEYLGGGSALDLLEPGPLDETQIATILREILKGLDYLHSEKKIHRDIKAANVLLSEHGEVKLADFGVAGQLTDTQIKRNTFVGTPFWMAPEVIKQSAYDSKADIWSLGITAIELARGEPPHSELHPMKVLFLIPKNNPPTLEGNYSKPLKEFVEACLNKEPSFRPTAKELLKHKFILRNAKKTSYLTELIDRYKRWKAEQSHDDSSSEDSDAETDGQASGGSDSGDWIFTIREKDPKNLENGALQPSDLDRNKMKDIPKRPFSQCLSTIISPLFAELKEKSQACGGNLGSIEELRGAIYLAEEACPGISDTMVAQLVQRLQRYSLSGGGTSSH

Compound: c1cc(-c2ccc3[nH]ncc3c2)ccn1 [TG693, 5-(4-pyridinyl)-1H-indazole]
- inhibition at 1 µM [1]: -5.9%
- inhibition at 1 µM [2]: -3%
- inhibition at 1 µM [3]: -7.5%
- inhibition at 1 µM [4]: 7.3%
- inhibition at 1 µM [5]: 1.2%
- inhibition at 1 µM [6]: -1.8%
- inhibition at 1 µM [7]: 5.1%
- inhibition at 1 µM [8]: 4.1%
- inhibition at 1 µM [9]: 10.8%
- inhibition at 1 µM [10]: 6.1%
- inhibition at 1 µM [11]: 11.4%
- inhibition at 1 µM [12]: -5.4%
- inhibition at 1 µM [13]: -18.2%
- inhibition at 1 µM [14]: 5.2%
- inhibition at 1 µM [15]: -3.8%
- inhibition at 1 µM [16]: 2%
- inhibition at 1 µM [17]: 1.7%
- inhibition at 1 µM [18]: 1%
- inhibition at 1 µM [19]: 9.1%
- inhibition at 1 µM [20]: 6.1%
- inhibition at 1 µM [21]: 5.9%
- inhibition at 1 µM [22]: -3.5%
- inhibition at 1 µM [23]: -51.3%
- inhibition at 1 µM [24]: -9.7%
- inhibition at 1 µM [25]: 41.4%
- inhibition at 1 µM [26]: 7.7%
- inhibition at 1 µM [27]: 14.6%
- inhibition at 1 µM [28]: -0.6%
- inhibition at 1 µM [29]: -3.2%
- inhibition at 1 µM [30]: -0.7%
- inhibition at 1 µM [31]: 25.1%
